# PubChem BioAssay (NCI)
#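 GI50 is the concentration that inhibits growth by half. Definition used: TGI = concentration required for complete inhibition of growth.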
# Key:
# Assay in all cases: NCI-60 cell line screen, 384-well format
# ACHN renal = test system: ACHN renal
# M14 melanoma = test system: M14 melanoma
# MDA-MB-468 breast = test system: MDA-MB-468 breast
# KM12 colon = test system: KM12 colon
# SR leukemia = test system: SR leukemia
# HOP-92 NSCLC = test system: HOP-92 NSCLC
# MALME-3M melanoma = test system: MALME-3M melanoma
# SF-295 CNS = test system: SF-295 CNS
# NCI-H23 lung = test system: NCI-H23 lung
# UACC-257 melanoma = test system: UACC-257 melanoma
# DU-145 prostate = test system: DU-145 prostate
# HS 578T breast = test system: HS 578T breast
# SNB-19 CNS = test system: SNB-19 CNS
# RPMI-8226 leukemia = test system: RPMI-8226 leukemia
# COLO 205 colon = test system: COLO 205 colon
# EKVX NSCLC = test system: EKVX NSCLC
# SF-268 CNS = test system: SF-268 CNS
# CAKI-1 renal = test system: CAKI-1 renal
# CCRF-CEM leukemia = test system: CCRF-CEM leukemia
# A549 NSCLC = test system: A549 NSCLC
# K-562 leukemia = test system: K-562 leukemia
# HCT-116 colon = test system: HCT-116 colon
# HOP-62 NSCLC = test system: HOP-62 NSCLC
# UACC-62 melanoma = test system: UACC-62 melanoma
# SK-MEL-2 melanoma = test system: SK-MEL-2 melanoma
# A498 renal = test system: A498 renal
# 786-0 renal = test system: 786-0 renal
# OVCAR-4 ovarian = test system: OVCAR-4 ovarian
# HCT-15 colon = test system: HCT-15 colon
# TK-10 renal = test system: TK-10 renal
# NCI-H226 lung = test system: NCI-H226 lung
# SW-620 colon = test system: SW-620 colon
# OVCAR-5 ovarian = test system: OVCAR-5 ovarian
# SK-MEL-5 melanoma = test system: SK-MEL-5 melanoma
# SK-MEL-28 melanoma = test system: SK-MEL-28 melanoma
# SN12C renal = test system: SN12C renal
# RXF 393 renal = test system: RXF 393 renal
# LOX IMVI melanoma = test system: LOX IMVI melanoma
# UO-31 renal = test system: UO-31 renal
# NCI-H522 lung = test system: NCI-H522 lung
# OVCAR-3 ovarian = test system: OVCAR-3 ovarian
# BT-549 breast = test system: BT-549 breast
# MDA-MB-231 breast = test system: MDA-MB-231 breast
# OVCAR-8 ovarian = test system: OVCAR-8 ovarian
# T-47D breast = test system: T-47D breast
# SF-539 CNS = test system: SF-539 CNS
# NCI-H460 NSCLC = test system: NCI-H460 NSCLC
# NCI/ADR-RES ovarian = test system: NCI/ADR-RES ovarian
# HL-60(TB) leukemia = test system: HL-60(TB) leukemia
# SNB-75 CNS = test system: SNB-75 CNS
# PC-3 prostate = test system: PC-3 prostate
# U251 glioblastoma = test system: U251 glioblastoma
# HCC-2998 colon = test system: HCC-2998 colon
# MDA-MB-435 melanoma = test system: MDA-MB-435 melanoma
# NCI-H322M lung = test system: NCI-H322M lung
# SK-OV-3 ovarian = test system: SK-OV-3 ovarian
# IGROV1 ovarian = test system: IGROV1 ovarian
# MOLT-4 leukemia = test system: MOLT-4 leukemia
smiles,measurement,setting,value
CC[C@@]1(O)C(=O)OCc2c1cc1n(c2=O)Cc2c-1nc1cc(F)c(C)c3c1c2[C@@H](NC(=O)CO)CC3,GI50,ACHN renal,< 10 nM
same,TGI,ACHN renal,11.1 nM
same,GI50,M14 melanoma,< 10 nM
same,TGI,M14 melanoma,12.8 nM
same,GI50,MDA-MB-468 breast,< 10 nM
same,TGI,MDA-MB-468 breast,< 10 nM
same,GI50,KM12 colon,11.6 nM
same,TGI,KM12 colon,149 nM
same,GI50,SR leukemia,< 10 nM
same,TGI,SR leukemia,< 10 nM
same,GI50,HOP-92 NSCLC,< 10 nM
same,TGI,HOP-92 NSCLC,58.9 nM
same,GI50,MALME-3M melanoma,< 10 nM
same,TGI,MALME-3M melanoma,237 nM
same,GI50,SF-295 CNS,< 10 nM
same,TGI,SF-295 CNS,< 10 nM
same,GI50,NCI-H23 lung,< 10 nM
same,TGI,NCI-H23 lung,< 10 nM
same,GI50,UACC-257 melanoma,19.4 nM
same,TGI,UACC-257 melanoma,226 nM
same,GI50,DU-145 prostate,< 10 nM
same,TGI,DU-145 prostate,< 10 nM
same,GI50,HS 578T breast,< 10 nM
same,TGI,HS 578T breast,2360 nM
same,GI50,SNB-19 CNS,< 10 nM
same,TGI,SNB-19 CNS,12.7 nM
same,GI50,RPMI-8226 leukemia,< 10 nM
same,TGI,RPMI-8226 leukemia,20.6 nM
same,GI50,COLO 205 colon,< 10 nM
same,TGI,COLO 205 colon,537 nM
same,GI50,EKVX NSCLC,42.9 nM
same,TGI,EKVX NSCLC,2650 nM
same,GI50,SF-268 CNS,< 10 nM
same,TGI,SF-268 CNS,< 10 nM
same,GI50,CAKI-1 renal,< 10 nM
same,TGI,CAKI-1 renal,103 nM
same,GI50,CCRF-CEM leukemia,< 10 nM
same,TGI,CCRF-CEM leukemia,< 10 nM
same,GI50,A549 NSCLC,49.8 nM
same,TGI,A549 NSCLC,944 nM
same,GI50,K-562 leukemia,< 10 nM
same,TGI,K-562 leukemia,171 nM
same,GI50,HCT-116 colon,< 10 nM
same,TGI,HCT-116 colon,159 nM
same,GI50,HOP-62 NSCLC,< 10 nM
same,TGI,HOP-62 NSCLC,< 10 nM
same,GI50,UACC-62 melanoma,< 10 nM
same,TGI,UACC-62 melanoma,< 10 nM
same,GI50,SK-MEL-2 melanoma,33.1 nM
same,TGI,SK-MEL-2 melanoma,105 nM
same,GI50,A498 renal,< 10 nM
same,TGI,A498 renal,142 nM
same,GI50,786-0 renal,< 10 nM
same,TGI,786-0 renal,10.1 nM
same,GI50,OVCAR-4 ovarian,131 nM
same,TGI,OVCAR-4 ovarian,419 nM
same,GI50,HCT-15 colon,17.5 nM
same,TGI,HCT-15 colon,1180 nM
same,GI50,TK-10 renal,47.6 nM
same,TGI,TK-10 renal,1660 nM
same,GI50,NCI-H226 lung,< 10 nM
same,TGI,NCI-H226 lung,49.6 nM
same,GI50,SW-620 colon,< 10 nM
same,TGI,SW-620 colon,223 nM
same,GI50,OVCAR-5 ovarian,35.2 nM
same,TGI,OVCAR-5 ovarian,268 nM
same,GI50,SK-MEL-5 melanoma,< 10 nM
same,TGI,SK-MEL-5 melanoma,16.4 nM
same,GI50,SK-MEL-28 melanoma,< 10 nM
same,TGI,SK-MEL-28 melanoma,270 nM
same,GI50,SN12C renal,< 10 nM
same,TGI,SN12C renal,< 10 nM
same,GI50,RXF 393 renal,< 10 nM
same,TGI,RXF 393 renal,< 10 nM
same,GI50,LOX IMVI melanoma,< 10 nM
same,TGI,LOX IMVI melanoma,37.5 nM
same,GI50,UO-31 renal,20.6 nM
same,TGI,UO-31 renal,116 nM
same,GI50,NCI-H522 lung,< 10 nM
same,TGI,NCI-H522 lung,19 nM
same,GI50,OVCAR-3 ovarian,< 10 nM
same,TGI,OVCAR-3 ovarian,38.4 nM
same,GI50,BT-549 breast,< 10 nM
same,TGI,BT-549 breast,40.2 nM
same,GI50,MDA-MB-231 breast,99.6 nM
same,TGI,MDA-MB-231 breast,1520 nM
same,GI50,OVCAR-8 ovarian,< 10 nM
same,TGI,OVCAR-8 ovarian,104 nM
same,GI50,T-47D breast,< 10 nM
same,TGI,T-47D breast,101 nM
same,GI50,SF-539 CNS,< 10 nM
same,TGI,SF-539 CNS,15.6 nM
same,GI50,NCI-H460 NSCLC,< 10 nM
same,TGI,NCI-H460 NSCLC,23.4 nM
same,GI50,NCI/ADR-RES ovarian,53.6 nM
same,TGI,NCI/ADR-RES ovarian,256 nM
same,GI50,HL-60(TB) leukemia,< 10 nM
same,TGI,HL-60(TB) leukemia,< 10 nM
same,GI50,SNB-75 CNS,< 10 nM
same,TGI,SNB-75 CNS,10.8 nM
same,GI50,PC-3 prostate,97.3 nM
same,TGI,PC-3 prostate,3.88 µM
same,GI50,U251 glioblastoma,< 10 nM
same,TGI,U251 glioblastoma,13.6 nM
same,GI50,HCC-2998 colon,15.6 nM
same,TGI,HCC-2998 colon,212 nM
same,GI50,MDA-MB-435 melanoma,24.3 nM
same,TGI,MDA-MB-435 melanoma,467 nM
same,GI50,NCI-H322M lung,54.2 nM
same,TGI,NCI-H322M lung,684 nM
same,GI50,SK-OV-3 ovarian,< 10 nM
same,TGI,SK-OV-3 ovarian,28.1 nM
same,GI50,IGROV1 ovarian,12.8 nM
same,TGI,IGROV1 ovarian,1140 nM
same,GI50,MOLT-4 leukemia,< 10 nM
same,TGI,MOLT-4 leukemia,< 10 nM
